{"source": "patent US5093519A", "about": "“Vitamin D derivatives: therapeutic applications and applications to assays of metabolities of vitamin D” (priority 1988, dated 1992)", "key": {"[1]": {"test_system": "HL 60 cells", "assay": "Differentiation of HL 60 leukemic cells in vitro", "type": "cell-based", "conditions": "in words", "from_the_text": "This is, in effect, directly confirmed in various biological tests (induction of the differentiation HL 60 leukemic cells, inhibition of lymphocyte proliferation, modification of the proliferation of cancer cells, calciotropic effect, and the like). FIGS. (3-4) illustrate the effect of different analogs on the differentiation of HL 60 leukemic cells."}, "[2]": {"target": "T1, intracellular receptor for vitamin D (Rattus norvegicus, UniProt P13053)", "T1 construct": "from tissue; host or cells: rat duodenum", "T1 sequence (P13053 1-423)": "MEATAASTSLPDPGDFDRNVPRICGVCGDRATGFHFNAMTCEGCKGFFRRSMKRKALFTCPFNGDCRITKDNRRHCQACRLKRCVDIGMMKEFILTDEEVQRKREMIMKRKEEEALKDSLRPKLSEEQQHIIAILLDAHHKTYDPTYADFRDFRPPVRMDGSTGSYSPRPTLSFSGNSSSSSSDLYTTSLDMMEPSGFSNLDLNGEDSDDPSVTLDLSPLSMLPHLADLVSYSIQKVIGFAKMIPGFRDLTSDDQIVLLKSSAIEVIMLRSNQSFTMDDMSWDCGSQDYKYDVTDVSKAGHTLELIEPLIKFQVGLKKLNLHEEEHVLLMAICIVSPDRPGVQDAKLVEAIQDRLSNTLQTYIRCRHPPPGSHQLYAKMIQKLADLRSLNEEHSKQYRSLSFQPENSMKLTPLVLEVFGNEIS", "assay": "Binding to the intracellular receptor for vitamin D, displacement of [^3 H]-1,25-(OH)2 -vitamin D3 (rat duodenum)", "conditions": "in words", "from_the_text": "Binding of 1,25-(OH)2 -vitamin D and two C^11 -derivatives to the intracellular receptor for vitamin D, measured by displacement of the binding of the tracer ]^3 H]-1,25-(OH)2 -vitamin D3.\nThe affinity, however, is approximately 100- to 200-fold lower than that of 1,25-(OH)2 -vitamin D3. This experiment is reproducible with receptors of different origins (rat duodenum in the example illustrated, but also calf thymus, human lymphocytes, and the like).\n(§1) Bibliographic References 21, 22 and 23 served as references for the methodology of the tests of binding to DBP and to the receptor, and of the test of inhibition of lymphocyte proliferation."}, "[3]": {"target": "T2, purified human DBP (Homo sapiens, UniProt P02774)", "T2 construct": "displacement of [3H]-25-OH-vitamin D3", "T2 sequence (P02774 17-474)": "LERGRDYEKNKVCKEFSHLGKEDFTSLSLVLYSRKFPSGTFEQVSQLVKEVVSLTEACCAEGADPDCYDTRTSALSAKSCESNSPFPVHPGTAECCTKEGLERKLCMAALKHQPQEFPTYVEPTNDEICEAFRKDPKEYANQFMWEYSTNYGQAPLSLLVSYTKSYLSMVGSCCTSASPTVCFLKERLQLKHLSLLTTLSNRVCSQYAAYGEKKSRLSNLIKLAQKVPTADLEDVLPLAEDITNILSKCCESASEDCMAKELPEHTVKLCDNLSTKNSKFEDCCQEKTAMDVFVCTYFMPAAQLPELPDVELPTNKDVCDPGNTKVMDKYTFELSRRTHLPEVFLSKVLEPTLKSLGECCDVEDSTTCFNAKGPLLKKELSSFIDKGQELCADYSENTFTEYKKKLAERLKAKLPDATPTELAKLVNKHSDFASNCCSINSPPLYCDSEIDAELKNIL", "assay": "Binding to purified human DBP, displacement of [^3 H]-25-OH-vitamin D3", "conditions": "in words; FIG. 1", "from_the_text": "Binding to purified human DBP of 25-OH-vitamin D3, 1,25-(OH)2 -vitamin D3 and some C^11 -derivatives of these molecules, measured by displacement of the binding of the tracer [^3 H]-25-OH-vitamin D3.\nThis affinity is not modified with an 11-hydroxyethyl derivative. […] This property has been turned to good account for obtaining analogs which can be iodinated via their branch at C^11, and these derivatives have been used successfully, for example, for developing the first specific assay for 25-OH-vitamin D3 using an iodinated tracer.\nas §1"}, "[4]": {"test_system": "human lymphocytes", "assay": "Inhibition of proliferation of PHA-stimulated human lymphocytes", "type": "cell-based", "conditions": "for antagonist effect in lymphocyte proliferation test: 10^-10 M derivative added to 1,25-(OH)2 -vitamin D3; for inhibition of lymphocyte proliferation (in words): compound alone; for inhibition of lymphocyte proliferation, less active than 1,25-(OH)2 -vitamin D3: fold less active than 1,25-(OH)2 -vitamin D3", "from_the_text": "For example, if the proliferative response of human lymphocytes stimulated with PHA is 100 in the absence of vitamin D3, it is reduced to 66.5 in the presence of 10^-11 M 1,25-(OH)2 -vitamin D3 (Table 1). In the same test, the addition of 11-(2-hydroxyethyl)-1,25-(OH)2 -D3 induces no inhibition at 10^-10 M (102.6).\nas §1"}, "[5]": {"test_system": "vitamin D-binding protein (DBP)", "conditions": "background knowledge, cited from earlier work"}, "[6]": {"test_system": "intracellular receptor of vitamin D", "conditions": "background knowledge; cited from earlier work"}, "[7]": {"conditions": "background knowledge, cited from earlier work"}}, "note": "Read-outs that look alike come from different tables or passages of the source."}
{"compound": "C=C1CCC(O)CC1=CC=C1CC(CCO)CC2(C)C1CCC2C(C)CCCC(C)(C)O", "note": "(centres unmarked) [compound 56, 11-(2-hydroxyethyl)-25-OH-vitamin D3]", "values": [{"measurement": "biological activity in a test of differentiation of HL 60 cells", "setting": "[1]; FIGS. 3-4", "result": "of low activity"}]}
{"compound": "C=C1/C(=C\\C=C2/C[C@H](c3ccccc3)C[C@]3(C)[C@@H]([C@H](C)CCCC(C)(C)O)CC[C@@H]23)C[C@@H](O)C[C@@H]1O", "note": "[compound 48, 1α,25-(OH)2-11α-phenylvitamin D3]", "values": [{"measurement": "biological activity in a test of differentiation of HL 60 cells", "setting": "[1]; FIGS. 3-4, listed as 11α-phenyl-1,25-(OH)2 -vitamin D3", "result": "active"}, {"measurement": "biological activity in a test of differentiation of HL 60 cells", "setting": "[1]; FIGS. 3-4, listed as phenyl derivative", "result": "moderately active"}, {"measurement": "binding to the vitamin D3 receptor", "setting": "[2]; FIG. 2", "result": "binds the receptor better than the 11α-hydroxyethyl derivatives"}]}
{"compound": "C=C1/C(=C\\C=C2/C[C@H](CCO)C[C@]3(C)[C@@H]([C@H](C)CCCC(C)(C)O)CC[C@@H]23)C[C@@H](O)C[C@@H]1O", "note": "[compound 49, 11α-(2-OH-ethyl)-1,25-(OH)2-vitamin D3]", "values": [{"measurement": "binding to purified human DBP", "setting": "[3]", "result": "not modified"}, {"measurement": "antagonist effect in lymphocyte proliferation test", "setting": "[4]; listed as 11-(2-hydroxyethyl)-1,25-(OH)2 -D3", "result": "antagonizes its inhibitory effect"}, {"measurement": "antagonist effect in lymphocyte proliferation test", "setting": "[4]; listed as 11-(OH-ethyl) derivative", "result": "behaves as a partial antagonist of vitamin D3"}, {"measurement": "lymphocyte proliferation", "setting": "[4]; 11-(2-OH-Ethyl) derivative 10^-10 M + 1,25-(OH)2 -vitamin D3 10^-11 M, 0.0001 µM", "result": 91.8, "unit": "%"}, {"measurement": "lymphocyte proliferation", "setting": "[4]; 11-(2-OH-Ethyl) derivative 10^-10 M + 1,25-(OH)2 -vitamin D3 10^-12 M, 0.0001 µM", "result": 98.5, "unit": "%"}, {"measurement": "activity at 0.0001 µM", "setting": "[4]; Homo sapiens, Lymphocyte, 10^-10 M alone, response is 100 in the absence of vitamin D3, read-out: proliferative response of lymphocytes", "result": 103, "unit": "%"}, {"measurement": "inhibition of lymphocyte proliferation (in words)", "setting": "[4]", "result": "no inhibition"}, {"measurement": "inhibition of lymphocyte proliferation, less active than 1,25-(OH)2 -vitamin D3", "setting": "[4]", "result": 100, "unit": "fold"}, {"measurement": "biological activity in a test of differentiation of HL 60 cells", "setting": "[1]; FIGS. 3-4", "result": "of low activity"}, {"measurement": "binding to the vitamin D3 receptor", "setting": "[2]; FIG. 2, listed as 11α-(hydroxyethyl)", "result": "bind the vitamin D3 receptor"}, {"measurement": "binding to the vitamin D3 receptor", "setting": "[2]; FIG. 2, listed as 11α-(hydroxyethyl)-1,25-(OH)2 -vitamin D3", "result": "comparable"}]}
{"compound": "C=C1/C(=C\\C=C2/C[C@H](C)C[C@]3(C)[C@@H]([C@H](C)CCCC(C)(C)O)CC[C@@H]23)C[C@@H](O)C[C@@H]1O", "note": "[compound 47, 1α,25-(OH)2-11α-methylvitamin D3]", "values": [{"measurement": "biological activity in a test of differentiation of HL 60 cells", "setting": "[1]; FIGS. 3-4, listed as 11α-methyl-1,25-(OH)2 -vitamin D3", "result": "strong activity, approaching that of 1,25-(OH)2 -vitamin D3"}, {"measurement": "biological activity in a test of differentiation of HL 60 cells", "setting": "[1]; FIGS. 3-4, listed as methyl derivative", "result": "very active"}, {"measurement": "binding to the vitamin D3 receptor", "setting": "[2]; FIG. 2", "result": "affinity comparable to unsubstituted 1,25-(OH)2 -vitamin D3"}]}
{"compound": "C=C1/C(=C\\C=C2/C[C@H](CCOC(=O)CCC(=O)O)C[C@]3(C)[C@@H]([C@H](C)CCCC(C)(C)O)CC[C@@H]23)C[C@@H](O)C[C@@H]1O", "note": "[11β-(2-hemisuccinoyloxyethyl)]", "values": [{"measurement": "binding to the vitamin D3 receptor", "setting": "[2]; FIG. 2", "result": "bind the vitamin D3 receptor"}]}
{"compound": "C=C1/C(=C\\C=C2/C[C@H](CCOC(=O)CCC(=O)O)C[C@]3(C)[C@@H]([C@H](C)CCCC(C)(C)O)CC[C@@H]23)C[C@@H](O)C[C@@H]1O", "note": "[compound 50, 11α-(2-HS-ethyl)-1,25-(OH)2-vitamin D3]", "values": [{"measurement": "inhibition of lymphocyte proliferation, less active than 1,25-(OH)2 -vitamin D3", "setting": "[4]", "result": "approximately 1000 fold"}, {"measurement": "binding to the vitamin D3 receptor", "setting": "[2]; FIG. 2, listed as 11α-(2-hemisuccinoyloxyethyl vitamin D3)", "result": "comparable"}]}
{"compound": "C=C1CC[C@H](O)C/C1=C/C=C1\\CCC[C@]2(C)[C@@H]([C@H](C)CCCC(C)(C)O)CC[C@@H]12", "note": "[25-OH-vitamin D3]", "values": [{"measurement": "biological activity in a test of differentiation of HL 60 cells", "setting": "[1]; FIGS. 3-4", "result": "of low activity"}, {"measurement": "affinity for DBP", "setting": "[5]", "result": "high affinity"}, {"measurement": "affinity for the intracellular receptor of vitamin D", "setting": "[6]", "result": "low affinity"}]}
{"compound": "C=C1/C(=C\\C=C2/CCC[C@]3(C)[C@@H]([C@H](C)CCCC(C)(C)O)CC[C@@H]23)C[C@@H](O)C[C@@H]1O", "note": "[1,25-(OH)2-vitamin D3]", "values": [{"measurement": "lymphocyte proliferation", "setting": "[4]; 1,25-(OH)2 -vitamin D3 10^-11 M alone, 100% in absence of vitamin D3, 1e-05 µM", "result": 66.5, "unit": "%"}, {"measurement": "lymphocyte proliferation", "setting": "[4]; 1,25-(OH)2 -vitamin D3 10^-12 M alone, 100% in absence of vitamin D3, 1e-06 µM", "result": 93.8, "unit": "%"}, {"measurement": "inhibition of lymphocyte proliferation (in words)", "setting": "[4]", "result": "marked inhibition of proliferation"}, {"measurement": "biological activity in a test of differentiation of HL 60 cells", "setting": "[1]; FIGS. 3-4", "result": "active"}, {"measurement": "affinity for DBP", "setting": "[5]", "result": "lower affinity"}, {"measurement": "affinity for DBP", "setting": "[5]; listed as 1α,25-(OH)2 -vitamin D", "result": "low affinity"}, {"measurement": "half-life", "setting": "[7]", "result": "short half-life"}, {"measurement": "therapeutic index", "setting": "[7]; listed as 1,25-(OH)2)-vitamin D", "result": "very narrow therapeutic index"}, {"measurement": "therapeutic index", "setting": "[7]; listed as 1,25-(OH)2 -Vitamin D", "result": "narrow"}, {"measurement": "affinity for the intracellular receptor of vitamin D", "setting": "[6]", "result": "high affinity"}]}
{"compound": "C=C1CC[C@H](O)C/C1=C/C=C1\\C[C@H](CCOC(=O)CCC(=O)O)C[C@]2(C)[C@@H]([C@H](C)CCCC(C)(C)O)CC[C@@H]12", "note": "[compound 57, 11-(2-HS-ethyl)-25-OH-vitamin D3]", "values": [{"measurement": "binding to purified human DBP", "setting": "[3]", "result": "does not necessarily modify this affinity substantially"}]}
